Results taken from US20230077362A1 (CORTEVA AGRISCIENCE LLC, priority 2019, published 2023).

Key:
[1] = tested on: Cabbage Looper (Trichoplusia ni) ("CL"), second instar larvae; assay: Bioassay on cabbage looper (CL), 128-well diet tray assay; format: in vivo; conditions: Trichoplusia ni, read-out: CL (Biological Results, rating)
Procedure, shortened: (§1)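 Mortality (%) is scored well by well after five to seven days at 25° C. on a 14:10 light:dark regime. The value given is the mean of eight wells.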

[2] = tested on: Beet Armyworm (Spodoptera exigua) ("BAW"), second instar larvae; assay: Bioassay on beet armyworm (BAW), 128-well diet tray assay; format: in vivo; conditions: Spodoptera exigua, read-out: BAW (Biological Results, rating)
Procedure, shortened: as §1

SMILES | pest or weed control at 50 µg/cm2 [1] | pest or weed control at 50 µg/cm2 [2]
CCOCc1ccc(C)cc1N1C(=O)CS/C1=N\C(=O)Nc1ccc(-c2ncn(-c3ccc(SC(F)(F)F)cc3)n2)cc1C [Compound J205, (Z)-1-(3-(2-(Ethoxymethyl)-5-methylphenyl)-4-oxothiazolidin-2-ylidene)-3-(2-methyl-4-(1-(4-((trifluoromethyl)thio)phenyl)-1H-1,2,4-triazol-3-yl)phenyl)urea] | 50 to 100% | 50 to 100%
CCOCc1ccc(C)cc1N1C(=O)CS/C1=N\C(=O)Nc1ccc(-c2ncn(-c3ccc(OC(F)(F)F)cc3)n2)cc1C [Compound J206, (Z)-1-(3-(2-(Ethoxymethyl)-5-methylphenyl)-4-oxothiazolidin-2-ylidene)-3-(2-methyl-4-(1-(4-(trifluoromethoxy)phenyl)-1H-1,2,4-triazol-3-yl)phenyl)urea] | 50 to 100% | 50 to 100%
Cc1ccc(C(C)C)c(N2C(=O)CS/C2=N\C(=O)Nc2ccc(-c3ncn(-c4ccc(OC(F)(F)F)cc4)n3)cc2C(F)F)c1 [Compound J211, (Z)-1-(2-(Difluoromethyl)-4-(1-(4-(trifluoromethoxy)phenyl)-1H-1,2,4-triazol-3-yl)phenyl)-3-(3-(2-isopropyl-5-methylphenyl)-4-oxothiazolidin-2-ylidene)urea] | 50 to 100% | 50 to 100%
Cc1ccc(OCC(F)(F)F)c(N2C(=O)CS/C2=N\C(=O)Nc2ccc(-c3ncn(-c4ccc(OC(F)(F)F)cc4)n3)cc2C(F)F)c1 [Compound J212, (Z)-1-(2-(Difluoromethyl)-4-(1-(4-(trifluoromethoxy)phenyl)-1H-1,2,4-triazol-3-yl)phenyl)-3-(3-(5-methyl-2-(2,2,2-trifluoroethoxy)phenyl)-4-oxothiazolidin-2-ylidene)urea] | 50 to 100% | 50 to 100%
CC(C)c1ccc(N(C)C)cc1N1C(=O)CS/C1=N\C(=O)Nc1ccc(-c2ncn(-c3ccc(OC(F)(F)F)cc3)n2)cc1C(F)F [Compound J213, (Z)-1-(2-(Difluoromethyl)-4-(1-(4-(trifluoromethoxy)phenyl)-1H-1,2,4-triazol-3-yl)phenyl)-3-(3-(5-(dimethylamino)-2-isopropylphenyl)-4-oxothiazolidin-2-ylidene)urea] | 50 to 100% | 50 to 100%
CCOCc1ccc(C)cc1N1C(=O)CS/C1=N\C(=O)Nc1ccc(-c2ncn(-c3ccc(OC(F)(F)F)cc3)n2)cc1C(F)F [Compound J214, (Z)-1-(2-(Difluoromethyl)-4-(1-(4-(trifluoromethoxy)phenyl)-1H-1,2,4-triazol-3-yl)phenyl)-3-(3-(2-(ethoxymethyl)-5-methylphenyl)-4-oxothiazolidin-2-ylidene)urea] | 50 to 100% | 50 to 100%
Cc1ccc(COCC(F)(F)F)c(N2C(=O)CS/C2=N\C(=O)Nc2ccc(-c3ncn(-c4ccc(OC(F)(F)F)cc4)n3)cc2C(F)F)c1 [Compound J215, (Z)-1-(2-(Difluoromethyl)-4-(1-(4-(trifluoromethoxy)phenyl)-1H-1,2,4-triazol-3-yl)phenyl)-3-(3-(5-methyl-2-((2,2,2-trifluoroethoxy)methyl)phenyl)-4-oxothiazolidin-2-ylidene)urea] | 50 to 100% | 50 to 100%
Cc1ccc(C(C)C)c(N2C(=O)CS/C2=N\C(=O)Nc2ccc(-c3ncn(-c4ccc(OC(F)(F)F)cc4)n3)cc2Br)c1 [Compound J217, (Z)-1-(2-Bromo-4-(1-(4-(trifluoromethoxy)phenyl)-1H-1,2,4-triazol-3-yl)phenyl)-3-(3-(2-isopropyl-5-methylphenyl)-4-oxothiazolidin-2-ylidene)urea] | 50 to 100% | 50 to 100%
Cc1ccc(OCC(F)(F)F)c(N2C(=O)CS/C2=N\C(=O)Nc2ccc(-c3ncn(-c4ccc(OC(F)(F)F)cc4)n3)cc2Br)c1 [Compound J218, (Z)-1-(2-Bromo-4-(1-(4-(trifluoromethoxy)phenyl)-1H-1,2,4-triazol-3-yl)phenyl)-3-(3-(5-methyl-2-(2,2,2-trifluoroethoxy)phenyl)-4-oxothiazolidin-2-ylidene)urea] | 50 to 100% | 50 to 100%
CC(C)c1ccc(N(C)C)cc1N1C(=O)CS/C1=N\C(=O)Nc1ccc(-c2ncn(-c3ccc(OC(F)(F)F)cc3)n2)cc1Br [Compound J219, (Z)-1-(2-Bromo-4-(1-(4-(trifluoromethoxy)phenyl)-1H-1,2,4-triazol-3-yl)phenyl)-3-(3-(5-(dimethylamino)-2-isopropylphenyl)-4-oxothiazolidin-2-ylidene)urea] | 50 to 100% | 50 to 100%
COC(C)c1ccc(C)cc1N1C(=O)CS/C1=N\C(=O)Nc1ccc(-c2ncn(-c3ccc(OC(F)(F)F)cc3)n2)cc1Br (stereo not drawn) [Compound J220, (Z)-1-(2-Bromo-4-(1-(4-(trifluoromethoxy)phenyl)-1H-1,2,4-triazol-3-yl)phenyl)-3-(3-(2-(1-methoxyethyl)-5-methylphenyl)-4-oxothiazolidin-2-ylidene)urea] | 50 to 100% | 50 to 100%
CCOCc1ccc(C)cc1N1C(=O)CS/C1=N\C(=O)Nc1ccc(-c2ncn(-c3ccc(OC(F)(F)F)cc3)n2)cc1Br [Compound J221, (Z)-1-(2-Bromo-4-(1-(4-(trifluoromethoxy)phenyl)-1H-1,2,4-triazol-3-yl)phenyl)-3-(3-(2-(ethoxymethyl)-5-methylphenyl)-4-oxothiazolidin-2-ylidene)urea] | 50 to 100% | 50 to 100%
Cc1ccc(COCC(F)(F)F)c(N2C(=O)CS/C2=N\C(=O)Nc2ccc(-c3ncn(-c4ccc(OC(F)(F)F)cc4)n3)cc2Br)c1 [Compound J222, (Z)-1-(2-Bromo-4-(1-(4-(trifluoromethoxy)phenyl)-1H-1,2,4-triazol-3-yl)phenyl)-3-(3-(5-methyl-2-((2,2,2-trifluoroethoxy)methyl)phenyl)-4-oxothiazolidin-2-ylidene)urea] | 50 to 100% | 50 to 100%
Cc1ccc(COCC(F)(F)F)c(N2C(=O)CS/C2=N\C(=O)Nc2ccc(-c3ncn(-c4ccc(SC(F)(F)F)cc4)n3)cc2Cl)c1 [Compound J226, (Z)-1-(2-Chloro-4-(1-(4-((trifluoromethyl)thio)phenyl)-1H-1,2,4-triazol-3-yl)phenyl)-3-(3-(5-methyl-2-((2,2,2-trifluoroethoxy)methyl)phenyl)-4-oxothiazolidin-2-ylidene)urea] | 50 to 100% | 50 to 100%
Cc1ccc(C(C)C)c(N2C(=O)CS/C2=N\C(=O)Nc2ccc(-c3ncn(-c4ccc(OC(F)(F)F)cc4)n3)cc2C#N)c1 [Compound J227, (Z)-1-(2-cyano-4-(1-(4-(trifluoromethoxy)phenyl)-1H-1,2,4-triazol-3-yl)phenyl)-3-(3-(2-isopropyl-5-methylphenyl)-4-oxothiazolidin-2-ylidene)urea] | 50 to 100% | 50 to 100%
COC(C)c1ccc(C)cc1N1C(=O)CS/C1=N\C(=O)Nc1ccc(-c2ncn(-c3ccc(OC(F)(F)F)cc3)n2)cc1C#N (stereo not drawn) [Compound J228, (Z)-1-(2-Cyano-4-(1-(4-(trifluoromethoxy)phenyl)-1H-1,2,4-triazol-3-yl)phenyl)-3-(3-(2-(1-methoxyethyl)-5-methylphenyl)-4-oxothiazolidin-2-ylidene)urea] | 50 to 100% | 50 to 100%
COC(C)c1ccc(C)cc1N1C(=O)CS/C1=N\C(=O)Nc1ccc(-c2ncn(-c3ccc(SC(F)(F)F)cc3)n2)cc1C (stereo not drawn) [Compound J233, (Z)-1-(3-(2-(1-Methoxyethyl)-5-methylphenyl)-4-oxothiazolidin-2-ylidene)-3-(2-methyl-4-(1-(4-((trifluoromethyl)thio)phenyl)-1H-1,2,4-triazol-3-yl)phenyl)urea] | 50 to 100% | 50 to 100%
COC(C)c1ccc(C)cc1N1C(=O)CS/C1=N\C(=O)Nc1ccc(-c2ncn(-c3ccc(OC(F)(F)F)cn3)n2)cc1F (stereo not drawn) [Compound J236, (Z)-1-(2-Fluoro-4-(1-(5-(trifluoromethoxy)pyridin-2-yl)-1H-1,2,4-triazol-3-yl)phenyl)-3-(3-(2-(1-methoxyethyl)-5-methylphenyl)-4-oxothiazolidin-2-ylidene)urea] | 50 to 100% | 50 to 100%
Cc1ccc(COCC(F)(F)F)c(N2C(=O)CS/C2=N\C(=O)Nc2ccc(-c3ncn(-c4ccc(OC(F)(F)F)cn4)n3)cc2F)c1 [Compound J237, (Z)-1-(2-Fluoro-4-(1-(5-(trifluoromethoxy)pyridin-2-yl)-1H-1,2,4-triazol-3-yl)phenyl)-3-(3-(5-methyl-2-((2,2,2-trifluoroethoxy)methyl)phenyl)-4-oxothiazolidin-2-ylidene)urea] | 50 to 100% | 50 to 100%
CC(C)c1ccc(N(C)C)cc1N1C(=O)CS/C1=N\C(=O)Nc1ccc(-c2ncn(-c3ccc(OC(F)(F)F)cn3)n2)cc1F [Compound J238, (Z)-1-(3-(5-(Dimethylamino)-2-isopropylphenyl)-4-oxothiazolidin-2-ylidene)-3-(2-fluoro-4-(1-(5-(trifluoromethoxy)pyridin-2-yl)-1H-1,2,4-triazol-3-yl)phenyl)urea] | 50 to 100% | 50 to 100%
COc1ccc(C(C)C)c(N2C(=O)CS/C2=N\C(=O)Nc2ccc(-c3ncn(-c4ccc(OC(F)(F)F)cn4)n3)cc2F)c1 [Compound J239, (Z)-1-(2-Fluoro-4-(1-(5-(trifluoromethoxy)pyridin-2-yl)-1H-1,2,4-triazol-3-yl)phenyl)-3-(3-(2-isopropyl-5-methoxyphenyl)-4-oxothiazolidin-2-ylidene)urea] | 50 to 100% | 50 to 100%
